Experiments:
[1] = system: CT26 colon carcinoma cells; test: Efficacy after oral dosing in CT26 tumor bearing female Balb/c mice; format: in vivo
Source text: In this study, the inhibitory effects of Compound 1 as a single agent and in combination with an anti-PD-1 inhibitor in Balb/c mice grafted with CT26 colon carcinoma cells were studied. CT26 cells inoculated into syngeneic mice are highly tumorigenic (Brattain et al. 1980) and share molecular features with undifferentiated, invasive human colorectal carcinoma cells (Castle et al. 2014). Therefore, the CT26 cell line can serve as a valid cellular model for the metastatic and poorly differentiated human colorectal cancer. Moreover, this model has been reported to express significant levels of RTKs, indicating a potential reliance on these signaling pathway for the maintenance of a tumorigenic phenotype in vivo (Pryzybyszewska et al. 2017).
CT26 colon carcinoma cells (ATCC, CRL-2638) were thawed from the Exelixis pharmacology cell bank into T-75 flasks (Corning, 43064U) using fresh culture medium, ie, RPMI-1640 containing 10% fetal bovine serum (GIBCO, A384002). […]
Oral doses were administered via a […], 1.5″ stainless steel needle with silicone tip (VWR, 20068-666). […] Survival was monitored for a maximum of 40 days. […]
All animals were measured twice a week for tumor volume and body weight using Studylog software.
Significance values represent differences in comparison to vehicle or anti-PD-1 treatment groups and were determined using a nonparametric Mann-Whitney U-test. […]

bacterial = test: In vitro bacterial genotoxicity bioassay; format: cell-based
Method: The nonclinical toxicity of Compound 1 was characterized in dose range-finding 7-day and definitive 28-day repeat-dose studies in rats and dogs, and in in vitro bacterial and mammalian genotoxicity bioassays. Compound 1 was also evaluated in definitive neurobehavioral, respiratory and cardiovascular safety pharmacology studies.
Compound 1 was negative in in vitro bacterial and mammalian cell genotoxicity bioassays.

advanced solid tumors = test: Phase 1 first-in-human Study Compound 1-001 (NCT03845166): safety (DLT, adverse events) and preliminary clinical activity; format: in vivo
Source text: The maximum tolerated dose (MTD) and/or recommended dose (RD) of Compound 1 single-agent therapy and ICI combination therapy will be determined in a Dose-Escalation Stage. The preliminary efficacy of Compound 1 as single agent and as ICI combination therapy will be determined in a Cohort-Expansion Stage with tumor-specific expansion cohorts. As of 14 Dec. 2020, dose escalation of Compound 1 as single agent and in combination therapy with atezolizumab was ongoing: 19 subjects were enrolled in single agent cohorts across six dose levels (PIB: 10, 20 mg; Tablet: 20, 40, 80, 140 mg); three subjects were enrolled in combination therapy with atezolizumab at one dose level (Compound 1 40 mg po qd plus atezolizumab 1200 mg IV q3w). As of 14 Dec. […] The majority of reported adverse events (AEs) were of low-grade severity (Grade 1-2) with five subjects having experienced treatment-related Grade 3 events.
In the Compound 1 single-agent dose-escalation cohorts, study drug will be administered qd for the first 28 days, which comprises the Dose-Limiting Toxicity (DLT) Evaluation Period. At the end of the 28-day DLT period, the Cohort Review Committee will review all available safety and PK data for cohorts containing at least 3 subjects and dose escalation to the next cohort may proceed if 0 out of 3 subjects or […] subjects experience(s) a DLT (as defined below). Dose escalation to the next cohort will not exceed a doubling of the Compound 1 dose; however, the Cohort Review Committee may decide to institute a less-than-doubling escalation between cohorts based on evaluation of safety and PK results from the current and previous cohorts.
Dose-limiting toxicity is defined as any of the following treatment-emergent AEs occurring during the DLT Evaluation Period for Compound 1 as single-agent therapy: • Any treatment-emergent AE that in the opinion of the Cohort Review Committee is of potential clinical significance such that further dose escalation of Compound 1 would expose subjects to unacceptable risk • Non-hematologic toxicity: treatment-emergent […] AEs • The following hematologic toxicities that are treatment-emergent: • Grade 3 thrombocytopenia with clinically significant bleeding • Grade 4 thrombocytopenia • Grade 4 neutropenia of 4 days duration • Grade 3 neutropenia of any duration with fever (single temperature of ≥38.3° C. [101.0° F.] or sustained temperature of ≥38.0° C. [100.4° F.] for ≥1 hour) or documented infection • Grade 4 anemia • Inability to take 75% of the total planned Compound 1 dose for the DLT Evaluation Period because of a treatment-emergent AE leading to a dose reduction and/or interruption • Any AE experienced during the DLT Evaluation Period that results in permanent discontinuation of Compound 1 For subjects receiving Compound 1 as combination therapy with atezolizumab or avelumab, the above in addition to the following are defined as DLTs: • Any related Grade 3 AE which is unexpected in severity and/or duration compared with the known safety profiles of Compound 1 and atezolizumab or avelumab when used as single agents, and that cannot be managed by dose modification (reduction or interruption) and adequate supportive care, and requires permanent discontinuation of Compound 1 and/or atezolizumab or avelumab. • Any AE experienced during the DLT Evaluation Period that results in permanent discontinuation of Compound 1 and/or atezolizumab or avelumab Note: AEs are presumed attributable to study drug. […]

## CNC(=O)c1cc2c(Oc3ccc(NC(=O)C4(C(=O)Nc5ccc(F)cc5)CC4)cc3)ccnc2cc1OC [Compound 1, 1-N′-(4-Fluorophenvl)-1-N-[4-[7-methoxy-6-(methylcarbamovl)quinolin-4-yl]oxyphenyl]cyclopropane-1,1-dicarboxamide]
[1]; 40-day dosing, P<0.0001 Compound 1 vs vehicle, P<0.0001 combination vs aPD-1 alone, P<0.05 combination vs Compound 1
  survival (Kaplan Meier): Survival benefit and dose response
[1]; single agent 1, 3, 10, and 30 mg/kg/day for 40 days
  tumor growth: tumor growth delay
bacterial
  genotoxicity: negative
Advanced solid tumors; as of 14 Dec. 2020
  subjects with treatment-related Grade 3 events: five subjects
  treatment-related Grade 4 or Grade 5 events: no treatment-related Grade 4 or Grade 5 events
Advanced solid tumors; single agent and in combination with ICI therapy
  tolerability: well tolerated
Advanced solid tumors; single agent therapy and atezolizumab combination therapy cohorts
  preliminary clinical activity: prolonged disease stabilization and tumor regressions
Advanced solid tumors; single agent, one subject at 140 mg po qd, Grade 3 uncontrolled hypertension
  DLTs observed among completed dose levels: one DLT
